Values belong to the compound of their own block, whether it stands above or below them.
Tests used:
Format in all cases: physicochemical
[1] = UV spectrum (λmax) of the isolated compound
Excerpt: In other embodiments, the present invention provides methods and techniques for determining the UV-absorbing capacity of the compounds as defined herein. The UV-absorbing properties of the compounds defined herein can be determined by spectrophotometer according to techniques and methods well known in the art. For example, ultraviolet-visible spectroscopy or ultraviolet-visible spectrophotometry (UV-Vis or UV/Vis) may be used to calculate the wavelength of maximal absorption (λmax) of the compound.

[2] = In vitro UV protection performance (SPF in vitro, UVAPF, Critical Wavelength) by the Colipa UVA in vitro Method on PMMA plates; conditions: for Critical Wavelength λc value: PMMA plate, after UV exposure, 90% of the absorbance integral 290 to 400 nm, >= 370 nm = broad-spectrum; for protection against UVA rays (UVAPF in vitro), in words: UVAPF in vitro measurements; for UVAPF: thin film 0.75 mg/cm^2 on PMMA plate, after UV irradiation (pre-irradiation 800 J/m^2-eff); for SPF in vitro: thin film 0.75 mg/cm^2 on roughened PMMA plate, absorbance before UV exposure
Procedure: The following compounds were evaluated by an in vitro study for the Sun Protection Factor (SPF) in vitro, the UVA Protection Factor (UVAPF) and the Critical Wavelength value using the Colipa UVA in vitro Method.
For determining the SPF in vitro value, the protection performance of the compounds against erythemally-effective UV radiation, largely confined to the UVB (290-320 nm) and short-wavelength UVA (320-340) region was calculated from the measured in vitro transmittance. The in vitro UVAPF, the UVA protection (320-400 nm) was calculated from the measured in vitro transmittance after irradiation. The Critical Wavelength Value was defined as the wavelength at which the integral of the spectral absorbance curve reached 90% of the integral over the UV spectrum from 290 to 400 nm. It has been settled that this value must be equal or over 370 nm so as to classify the product as broad-spectrum. The study consisted in a comparative assay of non-treated plates against plates treated with each of the compounds and was based on the evaluation of UV-transmittance through a thin film of sunscreen sample spread on a roughened substrate, before an after exposure to a controlled dose of UV radiation from a UV source. A Kontron 933 spectrophotomer equipped with a UV source, an integrating sphere and a monochromatic light able to deliver a flow of energy between 290 and 400 nm was used. The transmittance values were measured at 1 nm intervals. A 10-4 precision laboratory balance was used to control deposited product weight. The irradiation was provided by Sunset Atlas CPS+ with standard filter. Temperature regulation of the equipment was done in the range of 25-35° C. A pre-irradiation dose of 4 times 200 J/m^2-eff (800 J/m^2-eff) was delivered. The substrate was the material to which the sunscreen product was applied. Polymethylmethacrylate (PMMA) plates were used and were roughened on one side to a three-dimensional surface topography of 5 micrometers. Each compound was weighted and applied evenly to the PMMA plate with a 2-phase spreading to achieve a 0.75 mg/cm^2 weight/surface ratio. Spreading was performed with a light spreading move for approximately 30 seconds followed by spreading with greater pressure for approximately 30 seconds. The resulting sample was left to equilibrate for 15 minutes in the dark at room temperature to ensure a self-leveling if the formula. To account for lack of photostability, a pre-irradiation was necessary. The pre-irradiation dose was 4 minimal erythema dose (MEDs), equivalent to 800 J/m^2-eff. Five measurements of spectral irradiance transmitted for each wavelength through the PMMA plate covered with the sunscreen product were obtained after pre-irradiation of the sunscreen product [P1( ), P2( ), P3( ), P4( ) and P5( )]. For each compound, mean absorbance values were determined from at least three individual PMMA plates. To validate the accuracy of the results, a control product with an established SPF of 18-20, Lot 11T0313 was tested simultaneously with the compounds. SPF in vitro was calculated for each plate using the following equation (Colipa 2011):
[formula] Where: • E( )=Erythema action spectrum (CEI-1987) • I( )=Spectral irradiance of the UV source • A0( )=Mean monochromatic absorbance measurements per plate of the test compound layer before UV exposure, at each wavelength • d=Wavelength step (1 nm) Calculation of the UVAPF for Each Plate after UV Irradiation (Colipa 2011)
[formula] Where: • P( )=PPD action spectrum • I( )=Spectral irradiance of the UV source • A( )=Mean monochromatic absorbance measurements per plate of the test compound layer after UV exposure, at each wavelength • C=Coefficient of adjustment • d=Wavelength step (1 nm) Calculation of the Critical Wavelength (FDA 2011)
[formula] Where: • A( )=Mean monochromatic absorbance measurements per plate of the compound layer after UV exposure, at each wavelength • d=Wavelength step (1 nm) […]

[3] = UVA/UVB absorption of compound films on glass slides, with and without 20 hours ageing under UV (Xenon instrument); conditions: for Tested compound UVA % / Tested compound UVB %: absorption A = (Tslide−Tslide+sample)/Tslide×100; for Plate + tested compound UVA % / Plate + tested compound UVB %: transmission T (%)
Procedure: Compounds IE1, IF1, IA2, IE4, IA1, IE2, ID2 and ID3 were evaluated for their UV absorption properties. Samples were prepared as follows: 20 mg of each of the compounds were dissolved into 1 ml of methanol to yield 20 g/L solutions. The solutions were then applied onto two glass slides each. For each compound, one of the slides was aged for 20 hours under UV (Xenon instrument). Samples were then analyzed using a UVA-UVB spectrophotometer in transmission T (%) mode and compared to the non-aged slides. Absorption (A) was calculated using the following formula: Asample=(Tslide−Tslide+sample)/Tslide×100

[4] = 20 g/L methanol solution on glass slide, no ageing
[5] = ageing for 20 hours under UV (Xenon instrument)

Critical Wavelength λc value [2]: 390 nm
protection against UVA rays (UVAPF in vitro), in words [2]: good protection against UVA rays
UVAPF [2]: 8.7
SPF in vitro [2]: 2.4
Tested compound UVA % ([3]; ageing for 20 hours under UV): 95.1%
Tested compound UVB % ([3]; ageing for 20 hours under UV): 98.6%
Tested compound UVA % ([3]; no ageing): 98.9%
Tested compound UVB % ([3]; no ageing): 95.8%
Plate + tested compound UVA % [3, 4]: 0.99%
Plate + tested compound UVB % [3, 4]: 1.88%
Plate + tested compound UVA % [3, 5]: 4.33%
Plate + tested compound UVB % [3, 5]: 0.64%
SMILES: COc1ccc(/N=C2\CC(C)(C)CC3=C2SCC(C(=O)O)N3)cc1 (stereo not shown) [IA1]

Critical Wavelength λc value [2]: 391 nm
protection against UVA rays (UVAPF in vitro), in words [2]: good protection against UVA rays
UVAPF [2]: 13.5
SPF in vitro [2]: 3.4
Tested compound UVA % ([3]; ageing for 20 hours under UV): 98.2%
Tested compound UVB % ([3]; ageing for 20 hours under UV): 97.7%
Tested compound UVA % ([3]; no ageing): 98.9%
Tested compound UVB % ([3]; no ageing): 98.4%
Plate + tested compound UVA % [3, 4]: 1.00%
Plate + tested compound UVB % [3, 4]: 0.73%
Plate + tested compound UVA % [3, 5]: 1.63%
Plate + tested compound UVB % [3, 5]: 1.02%
SMILES: CC1(C)CC2=C(SCC(C(=O)O)N2)/C(=N/c2ccc(C(=O)NC(C)(C)C)cc2)C1 (stereo not shown) [IE1]

Tested compound UVA % ([3]; ageing for 20 hours under UV): 95.0%
Tested compound UVB % ([3]; ageing for 20 hours under UV): 95.6%
Tested compound UVA % ([3]; no ageing): 96.1%
Tested compound UVB % ([3]; no ageing): 95.3%
Plate + tested compound UVA % [3, 4]: 3.51%
Plate + tested compound UVB % [3, 4]: 2.12%
Plate + tested compound UVA % [3, 5]: 4.43%
Plate + tested compound UVB % [3, 5]: 1.97%
SMILES: CC1(C)CC2=C(SCC(C(=O)O)N2)/C(=N/c2ccccc2)C1 (stereo not shown) [IE2, (E)-6,6-dimethyl-8-(phenylimino)-3,4,5,6,7,8-hexahydro-2H-benzo[b][1,4]thiazine-3-carboxylic acid]

Critical Wavelength λc value [2]: 390 nm
protection against UVA rays (UVAPF in vitro), in words [2]: good protection against UVA rays
UVAPF [2]: 8.6
SPF in vitro [2]: 4.5
Tested compound UVA % ([3]; ageing for 20 hours under UV): 98.4%
Tested compound UVB % ([3]; ageing for 20 hours under UV): 98.2%
Tested compound UVA % ([3]; no ageing): 99.5%
Tested compound UVB % ([3]; no ageing): 99.0%
Plate + tested compound UVA % [3, 4]: 0.49%
Plate + tested compound UVB % [3, 4]: 0.46%
Plate + tested compound UVA % [3, 5]: 1.46%
Plate + tested compound UVB % [3, 5]: 0.81%
SMILES: CC1(C)CC2=C(SCC(C(=O)O)N2)/C(=N/c2ccc(F)cc2)C1 (stereo not shown) [IE4]

The next lines start with the compound.

SMILES: COc1ccc(/N=C2/C=C(NCC(=O)O)CCC2)cc1 [(E)-2-((3-((4-methoxyphenyl)imino)cyclohex-1-en-1-yl)amino)acetic acid]
UV: λmax ([1]; MeOH/water with both 0.1% formic acid): ~318 nm

SMILES: COc1ccc(/N=C2/C=C(Nc3ccc(OC)cc3)CC(C)(C)C2)cc1 [(E)-N,N′-(5,5-dimethylcyclohex-1-ene-1-yl-3-ylidene)bis(4-methoxyaniline)]
UV: λmax ([1]; MeOH/water): ~345 nm

SMILES: COc1ccc(/N=C2/C=C(NCC(=O)O)CC(C)(C)C2)cc1 [ID2]
Tested compound UVA % ([3]; ageing for 20 hours under UV): 98.9%
Tested compound UVB % ([3]; ageing for 20 hours under UV): 99.0%
Tested compound UVA % ([3]; no ageing): 99.5%
Tested compound UVB % ([3]; no ageing): 99.2%
Plate + tested compound UVA % [3, 4]: 0.44%
Plate + tested compound UVB % [3, 4]: 0.34%
Plate + tested compound UVA % [3, 5]: 1.00%
Plate + tested compound UVB % [3, 5]: 0.46%

SMILES: COc1ccc(/N=C2/C=C(NCC(=O)O)CCC2)cc1 [ID3]
Tested compound UVA % ([3]; ageing for 20 hours under UV): 98.6%
Tested compound UVB % ([3]; ageing for 20 hours under UV): 98.6%
Tested compound UVA % ([3]; no ageing): 99.5%
Tested compound UVB % ([3]; no ageing): 99.3%
Plate + tested compound UVA % [3, 4]: 0.47%
Plate + tested compound UVB % [3, 4]: 0.33%
Plate + tested compound UVA % [3, 5]: 1.28%
Plate + tested compound UVB % [3, 5]: 0.62%

SMILES: COc1ccc(/N=C2\CC(C)(C)CC3=C2SCC(C(=O)O)N3)cc1OC (stereo not shown) [IF1]
Critical Wavelength λc value [2]: 390 nm
UVAPF [2]: 4.1
SPF in vitro [2]: 2.1
Tested compound UVA % ([3]; ageing for 20 hours under UV): 99.6%
Tested compound UVB % ([3]; ageing for 20 hours under UV): 99.1%
Tested compound UVA % ([3]; no ageing): 99.7%
Tested compound UVB % ([3]; no ageing): 99.3%
Plate + tested compound UVA % [3, 4]: 0.24%
Plate + tested compound UVB % [3, 4]: 0.31%
Plate + tested compound UVA % [3, 5]: 0.37%
Plate + tested compound UVB % [3, 5]: 0.39%

— patent publication US9487474B2, “Imino compounds as protecting agents against ultraviolet radiations” (Elkimia, Inc., priority 2012, dated 2016)
